Here are results for 25 compounds from ChEMBL document CHEMBL5223130, “Targeting SARS-CoV-2 Main Protease for Treatment of COVID-19: Covalent Inhibitors Structure-Activity Relationship Insights and Evolution Perspectives” (J Med Chem, 2022).

The structures appear in SMILES notation. Square brackets hold non-standard residues; d marks the D form. Peptide text beside a SMILES is read from it. Nle = CCCC[C@H](N)C(=O)O

A short description of data set [1]: Selectivity index, ratio of EC50 for antiviral activity against SARS-CoV-2 to […]. The format is toxicity.
Data set [2] has as its target T1, Replicase polyprotein 1ab (Severe acute respiratory syndrome coronavirus 2, UniProt P0DTD1). In words: Binding affinity to C-terminal His-tagged SARS-CoV-2 BetaCoV/Wuhan/WIV04/2019 Main protease expressed in Escherichia coli assessed as inhibition constant.
The test system of data set [3] is SARS-CoV-2. The format is functional, organism-based, Vero E6. Conditions: Severe acute respiratory syndrome coronavirus 2, USA-WA1/2020, Vero C1008, 72 h.
Data set [4] concerns the target T1, Replicase polyprotein 1ab. In words: Binding affinity to SARS-CoV-2 Main protease assessed as inhibition constant.
Data set [5] relates to SARS-CoV-2. Kind of data set: Antiviral activity against SARS-CoV-2 USA-WA1/2020 infected in African green monkey Vero 76 cells assessed as reduction in virus induced cytopathic effect measured after 3 days by secondary viral yield reduction assay. Conditions: Severe acute respiratory syndrome coronavirus 2, USA-WA1/2020, Vero 76, 72 h. The format is functional, organism-based.

Data set [6] has as its system SARS-CoV-2. It counts as functional, organism-based, Vero E6. Conditions: Severe acute respiratory syndrome coronavirus 2, 2019-nCoV/USA_WA1/2020, Vero C1008, 72 h.
In data set [7] the target is T1, Replicase polyprotein 1ab. In words: Inhibition of SARS-CoV-2 Main protease.
The target in data set [8] is T1, Replicase polyprotein 1ab. Kind of data set: Inhibition of recombinant SARS-CoV-2 Main protease expressed in Escherichia coli BL21 (DE3) cells using Mca-AVLQSGFR-K(Dnp)K as substrate preincubated for 15 mins followed by substrate addition by FRET assay.
Data set [9] concerns SARS-CoV-2. The format is functional, organism-based, Vero E6. Conditions: Severe acute respiratory syndrome coronavirus 2, nCoV-2019BetaCoV/Wuhan/WIV04/2019, Vero C1008.
Data set [10] addresses T1, Replicase polyprotein 1ab. In words: Inhibition of SARS-CoV-2 Main protease by FRET assay.
The test system of data set [11] is SARS-CoV-2. The format is functional, organism-based. Conditions: Severe acute respiratory syndrome coronavirus 2, A549, 96 h.
Data set [12] has as its system SARS-CoV-2. It counts as functional, organism-based. Conditions: Severe acute respiratory syndrome coronavirus 2, Caco-2, 72 h.
The next data set has as its target Procathepsin L (Homo sapiens, UniProt P07711). In words: Inhibition of human Cathepsin L using Z-Phe-Arg-AMC as fluorogenic substrate incubated for 30 mins followed by substrate addition by fluorescence based analysis.
In data set [13] the test system is SARS-CoV-2. The format is functional, organism-based. Conditions: Severe acute respiratory syndrome coronavirus 2, Caco-2.
For data set [14], the target named is T1, Replicase polyprotein 1ab. Kind of data set: Inhibition of SARS-CoV-2 Main protease using Dabcyl-KTSAVLQSGFRKME-Edans as substrate preincubated for 30 mins followed by substrate addition and measured after 4 hrs by fluorescence based assay.
In data set [15] the test system is SARS-CoV-2. It counts as functional, organism-based, Vero E6. Conditions: Severe acute respiratory syndrome coronavirus 2, WK-521, Vero C1008, 72 h.
In data set [16] the test system is SARS-CoV-2. Kind of data set: Antiviral activity against SARS-CoV-2 2019-nCoV/USA_WA1/2020 infected in human Huh-7 cells expressing ACE2 measured 24 hrs post infection. Conditions: Severe acute respiratory syndrome coronavirus 2, 2019-nCoV/USA_WA1/2020, Huh-7, 24 h. The format is functional, organism-based.
For data set [17], the target named is T1, Replicase polyprotein 1ab. Kind of data set: Inhibition of C-terminal His-tagged SARS-CoV-2 BetaCoV/Wuhan/WIV04/2019 Main protease expressed in Escherichia coli using Dabcyl-KTSAVLQ/SGFRKME(Edans) as substrate by FRET assay.
Data set [18] has as its system SARS-CoV-2. In words: microbe, parasite or virus in culture. Conditions: Severe acute respiratory syndrome coronavirus 2.

Sequence of Procathepsin L (P07711 whole entry): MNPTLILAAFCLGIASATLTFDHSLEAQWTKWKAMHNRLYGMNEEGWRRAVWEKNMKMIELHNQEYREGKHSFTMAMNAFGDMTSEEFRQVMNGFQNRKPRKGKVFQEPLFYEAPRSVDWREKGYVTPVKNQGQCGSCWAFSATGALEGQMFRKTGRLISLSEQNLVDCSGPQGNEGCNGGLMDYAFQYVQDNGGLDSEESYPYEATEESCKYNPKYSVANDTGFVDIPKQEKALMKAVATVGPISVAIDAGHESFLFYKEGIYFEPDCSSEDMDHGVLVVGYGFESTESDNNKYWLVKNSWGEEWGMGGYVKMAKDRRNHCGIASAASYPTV

As usually defined, the Ki is the dissociation constant of the complex between target and ligand, obtained from inhibition or displacement. As a reminder, the EC50 is the concentration giving half of the maximal effect. For the compound `CC(C)C[C@H](NC(=O)OCc1ccccc1)C(=O)N[C@@H](C[C@@H]1CCNC1=O)C(=O)C(=O)NC1CC1`, the Ratio in [1] is recorded as 102.44. The inhibitory constant (Ki) in data set [2] came to 36 nM. In addition, the midpoint of the response in the data set on SARS-CoV-2 [3], the EC50, lay at 4610 nM.

In the case of `C=CCn1ccc2c(C(=O)Oc3cncc(Cl)c3)cccc21`, the Ratio in data set [1] is 205.47.

Take `O=C(Oc1cncc(Cl)c1)c1cccc2c1CCN2`: the Ratio in [1] is reported as 46.87. In data set [4], the inhibition constant (Ki) came to 2150 nM.

As for `CCC[C@H](NC(=O)[C@H](CC(C)C)NC(=O)OCc1ccccc1)C(=O)C(=O)NCc1ccccn1`, in the data set with SARS-CoV-2 [5], the EC50 came to 780 nM.

With `CCOC(=O)/C=C/[C@H](C[C@@H]1CCNC1=O)NC(=O)[C@H](CC(C)C)NC(=O)[C@@H](NC(=O)OCc1ccccc1)[C@@H](C)OC(C)(C)C`, a half-maximal effect with SARS-CoV-2 [6] (EC50) was put at 2880 nM.

The term IC50 denotes the concentration needed to halve the response being measured. In turn, `O=C(CCl)N1N=C(c2cc(Cl)ccc2F)C(c2ccccc2)C1c1ccc2nccnc2c1` (centres undefined) had an IC50 in data set [7] of 14 nM.

On to `C=CC(=O)N(c1ccc(C(C)(C)C)cc1)[C@H](C(=O)NCCc1cccc(F)c1)c1cccnc1`, for which the inhibitory constant (Ki) in [4] was found to be 38400 nM.

Consider `O=c1c2ccccc2[se]n1Cc1ccc(Cl)cc1`, for which the IC50 in data set [8] worked out at 824 nM. In the data set with SARS-CoV-2 [9], this compound gave an EC50 of 1780 nM.

In the case of `CC(C)CCn1sc2ccc(Br)cc2c1=O`, in data set [10], the IC50 worked out at 320 nM.

As to `CC(C)C[C@H](NC(=O)[C@@H](NC(=O)OCc1ccccc1)[C@H](C)OC(C)(C)C)C(=O)N[C@H](C=O)C[C@@H]1CCNC1=O`, the EC50 came out at 310 nM in the data set on SARS-CoV-2 [11] and 2500 nM in the data set on SARS-CoV-2 [12]. The compound further showed an IC50 on Procathepsin L of 1.2 nM.

Turning to `O=C[C@H](C[C@@H]1CCNC1=O)NC(=O)[C@@H]1[C@H]2CCC[C@H]2CN1C(=O)OCc1ccccc1`, the Ratio in [1] is 50.2.

As for `COc1cncc(Cn2[se]c3ccccc3c2=O)c1`, in data set [8], the 50% inhibitory concentration (IC50) was 467 nM. The compound further gave an EC50 with SARS-CoV-2 [9] of 3170 nM.

Turning to `COc1cccc(Cn2[se]c3ccccc3c2=O)c1`, the IC50 in data set [8] was found to be 363 nM. Further, the EC50 in the data set with SARS-CoV-2 [9] stood at 4500 nM.

In the case of `C[C@H](NC[C@@H](c1cccnc1)N(C(=O)C(Br)(Br)Br)c1ccc(-c2ccccc2)cc1)c1ccccc1`, the Ratio in data set [1] was 26.87. Besides, the IC50 in data set [7] was determined as 80 nM. In the data set on SARS-CoV-2 [13], the response was half-maximal at 2150 nM (EC50).

For `C[C@H](NC[C@@H](c1cccnc1)N(C(=O)C(Cl)Cl)c1ccc(-c2ccccc2)cc1)c1ccccc1`, the Ratio in data set [1] is 4.76. The compound further showed a concentration for half-maximal inhibition (IC50) in data set [7] of 430 nM. Moreover, the concentration giving a half-maximal response (EC50) with SARS-CoV-2 [13] worked out at 2050 nM.

`COc1ccc(-c2sc3n(c(NC(C)(C)C)c4[n+]3[C@H]3CC(=O)C=C[C@H]3OC4)c2-c2ccc(OC)cc2)cc1` registered an IC50 in [14] of 20700 nM.

With `CC(C)C[C@H](NC(=O)OCc1ccccc1)C(=O)N[C@@H](CC(C)C)C(=O)N[C@@H](C[C@@H]1CCNC1=O)C(=O)C(=O)NC1CC1`, the inhibitory constant (Ki) in [2] came out at 13 nM. The compound further came in with an EC50 with SARS-CoV-2 [3] of 11100 nM.

As for `O=C(N[C@@H](Cc1ccccc1)C(=O)N[C@@H](C[C@@H]1CCNC1=O)C(O)S(=O)(=O)[O-])OCc1ccccc1.[Na+]` (some centres undefined), the Ratio in data set [1] amounted to 45.78.

The compound `Cc1cccc(C(=O)Oc2c(C)cccc2C(=O)Oc2cncc(Cl)c2)c1O` yielded an EC50 with SARS-CoV-2 [15] of 24000 nM.

Consider `O=C(c1cccc(Cn2[se]c3ccccc3c2=O)c1)N1CCOCC1`, for which the half-inhibitory concentration (IC50) in data set [8] was 345 nM. In addition, in the data set on SARS-CoV-2 [9], a half-maximal response (EC50) required 3740 nM.

The compound `CC(C)C[C@H](NC(=O)OCc1cccc(C(F)(F)F)c1)C(=O)N[C@@H](C[C@@H]1CCNC1=O)C(O)S(=O)(=O)O` (some centres undefined) had an EC50 in the data set with SARS-CoV-2 [16] of 6 nM.

On to `CSCC[C@@H](C=O)NC(=O)[C@H](CC(C)C)NC(=O)[C@H](CC(C)C)NC(C)=O` (Ac-Leu-Leu-Met-aldehyde), for which the EC50 in the data set with SARS-CoV-2 [5] was determined as 3700 nM.

For `CCCC[C@@H](C=O)NC(=O)[C@H](CC(C)C)NC(=O)[C@H](CC(C)C)NC(C)=O` (Ac-Leu-Leu-[Nle]-aldehyde), the midpoint of inhibition in data set [17], the IC50, lay at 970 nM.

`CC(C)(C)NC(=O)N[C@H](C(=O)N1C[C@H]2[C@@H]([C@H]1C(=O)NC(CC1CCC1)C(=O)C(N)=O)C2(C)C)C(C)(C)C` (some centres undefined) [BOCEPREVIR]: the concentration giving a half-maximal response (EC50) in the data set on SARS-CoV-2 [18] came to 1900 nM.

Take `O=C1C=CC(=O)c2c(O)ccc(O)c21` [NAPHTHAZALIN]: the IC50 in data set [7] was determined as 490 nM.
